Test results: patent US6949542B2, “Dihydro-benzo[b][1,4]diazepin-2-one derivatives” (Hoffman-La Roche Inc., priority 2002, dated 2005)

melting point [°C]	Compound
155	CCCN(C)Cc1cc(-c2cccc(C3=Nc4cc(OCC(F)(F)F)c(C(F)(F)F)cc4NC(=O)C3)c2)ccn1 [Example 382, 4-(3-{2-[(Methyl-propyl-amino)-methyl]-pyridin-4-yl}-phenyl)-7-(2,2,2-trifluoro-ethoxy)-8-trifluoromethyl-1,3-dihydro-benzo[b][1,4]diazepin-2-one]
251 to 252	Cc1cc(-c2cccc(C3=Nc4cc(N5CCOCC5)c(C(F)(F)F)cc4NC(=O)C3)c2)cc(C)n1 [Example 384, 4-[3-(2,6-Dimethyl-pyridin-4-yl)-phenyl]-7-morpholin-4-yl-8-trifluoromethyl-1,3-dihydro-benzo[b][1,4]diazepin-2-one]
199 to 200	CCOc1cc2c(cc1C(F)(F)F)NC(=O)CC(c1cccc(-c3ccnc(N4CCOCC4)c3)c1)=N2 [Example 385, 7-Ethoxy-4-[3-(2-morpholin-4-yl-pyridin-4-yl)-phenyl]-8-trifluoromethyl-1,3-dihydro-benzo[b][1,4]diazepin-2-one]
189 to 190	O=C1CC(c2cccc(-c3ccnc(N4CCOCC4)c3)c2)=Nc2cc(OCC(F)(F)F)c(C(F)(F)F)cc2N1 [Example 386, 4-[3-(2-Morpholin-4-yl-pyridin-4-yl)-phenyl]-7-(2,2,2-trifluoro-ethoxy)-8-trifluoromethyl-1,3-dihydro-benzo[b][1,4]diazepin-2-one]
224	O=C1CC(c2cccc(-c3ccnc(N4CCCC4)c3)c2)=Nc2ccc(C(F)(F)F)cc2N1 [Example 388, 4-[3-(2-Pyrrolidin-1-yl-pyridin-4-yl)-phenyl]-8-trifluoromethyl-1,3-dihydro-benzo[b][1,4]diazepin-2-one]
190	Cc1cc2c(cc1C(F)(F)F)NC(=O)CC(c1cccc(-c3ccnc(N4CCCC4)c3)c1)=N2 [Example 389, 7-Methyl-4-[3-(2-pyrrolidin-1-yl-pyridin-4-yl)-phenyl]-8-trifluoromethyl-1,3-dihydro-benzo[b][1,4]diazepin-2-one]
215	CCOc1cc2c(cc1C(F)(F)F)NC(=O)CC(c1cccc(-c3ccnc(N4CCCC4)c3)c1)=N2 [Example 390, 7-Ethoxy-4-[3-(2-pyrrolidin-1-yl-pyridin-4-yl)-phenyl]-8-trifluoromethyl-1,3-dihydro-benzo[b][1,4]diazepin-2-one]
249	CCOc1cc2c(cc1C(F)(F)F)NC(=O)CC(c1ccnc(-c3cccnc3)c1)=N2 [Example 393, 4-[2,3′]Bipyridinyl-4-yl-7-ethoxy-8-trifluoromethyl-1,3-dihydro-benzo[b][1,4]diazepin-2-one]
197	O=C1CC(c2ccnc(-c3cccnc3)c2)=Nc2cc(OCC(F)(F)F)c(C(F)(F)F)cc2N1 [Example 394, 4-[2,3′]Bipyridinyl-4-yl-7-(2,2,2-trifluoro-ethoxy)-8-trifluoromethyl-1,3-dihydro-benzo[b][1,4]diazepin-2-one]
190	CC(C)CN(C)Cc1cc(-c2cccc(C3=Nc4cc(N(C)CC(C)C)c(C(F)(F)F)cc4NC(=O)C3)c2)ccn1 [Example 395, 7-(Isobutyl-methyl-amino)-4-(3-{2-[(isobutyl-methyl-amino)-methyl]-pyridin-4-yl}-phenyl)-8-trifluoromethyl-1,3-dihydro-benzo[b][1,4]diazepin-2-one]
151	Cc1cc2c(cc1Cl)NC(=O)CC(c1cccc(-c3ccnc(CN(C)CC(C)C)c3)c1)=N2 [Example 396, 8-Chloro-4-(3-{2-[(isobutyl-methyl-amino)-methyl]-pyridin-4-yl}-phenyl)-7-methyl-1,3-dihydro-benzo[b][1,4]diazepin-2-one]
166	CC(C)CN(C)Cc1cc(-c2cccc(C3=Nc4cc(OCC(F)(F)F)c(C(F)(F)F)cc4NC(=O)C3)c2)ccn1 [Example 397, 4-(3-{2-[(Isobutyl-methyl-amino)-methyl]-pyridin-4-yl}-phenyl)-7-(2,2,2-trifluoro-ethoxy)-8-trifluoromethyl-1,3-dihydro-benzo[b][1,4]diazepin-2-one]
141	COCc1cc(-c2cccc(C3=Nc4cc(N(C)CC(C)C)c(C(F)(F)F)cc4NC(=O)C3)c2)ccn1 [Example 398, 7-(Isobutyl-methyl-amino)-4-[3-(2-methoxymethyl-pyridin-4-yl)-phenyl]-8-trifluoromethyl-1,3-dihydro-benzo[b][1,4]diazepin-2-one]
216	COCc1cc(-c2cccc(C3=Nc4cc(C)c(Cl)cc4NC(=O)C3)c2)ccn1 [Example 399, 8-Chloro-4-[3-(2-methoxymethyl-pyridin-4-yl)-phenyl]-7-methyl-1,3-dihydro-benzo[b][1,4]diazepin-2-one]
225	COCc1cc(-c2cccc(C3=Nc4cc(OCC(F)(F)F)c(C(F)(F)F)cc4NC(=O)C3)c2)ccn1 [Example 400, 4-[3-(2-Methoxymethyl-pyridin-4-yl)-phenyl]-7-(2,2,2-trifluoro-ethoxy)-8-trifluoromethyl-1,3-dihydro-benzo[b][1,4]diazepin-2-one]
202	Cc1cc(-c2cccc(C3=Nc4cc(C)c(Cl)cc4NC(=O)C3)c2)cc(CO)n1 [Example 401, 8-Chloro-4-[3-(2-hydroxymethyl-6-methyl-pyridin-4-yl)-phenyl]-7-methyl-1,3-dihydro-benzo[b][1,4]diazepin-2-one]

melting point [°C]	Compound
200	Cc1cc(-c2cccc(C3=Nc4cc(C)c(C(F)(F)F)cc4NC(=O)C3)c2)cc(CO)n1 [Example 402, 4-[3-(2-Hydroxymethyl-6-methyl-pyridin-4-yl)-phenyl]-7-methyl-8-trifluoromethyl-1,3-dihydro-benzo[b][1,4]diazepin-2-one]
163	Cc1cc(-c2cccc(C3=Nc4cc(Cl)c(C(F)(F)F)cc4NC(=O)C3)c2)cc(CO)n1 [Example 403, 7-Chloro-4-[3-(2-hydroxymethyl-6-methyl-pyridin-4-yl)-phenyl]-8-trifluoromethyl-1,3-dihydro-benzo[b][1,4]diazepin-2-one]
234	Cc1cc(-c2cccc(C3=Nc4cc(Cl)c(Cl)cc4NC(=O)C3)c2)cc(CO)n1 [Example 404, 7,8-Dichloro-4-[3-(2-hydroxymethyl-6-methyl-pyridin-4-yl)-phenyl]-1,3-dihydro-benzo[b][1,4]diazepin-2-one]
227	Cc1cc(-c2cccc(C3=Nc4cc(OCC(F)(F)F)c(C(F)(F)F)cc4NC(=O)C3)c2)cc(CO)n1 [Example 405, 4-[3-(2-Hydroxymethyl-6-methyl-pyridin-4-yl)-phenyl]-7-(2,2,2-trifluoro-ethoxy)-8-trifluoromethyl-1,3-dihydro-benzo[b][1,4]diazepin-2-one]
225	CCOc1cc2c(cc1C(F)(F)F)NC(=O)CC(c1cccc(-c3cc(C)nc(CO)c3)c1)=N2 [Example 406, 7-Ethoxy-4-[3-(2-hydroxymethyl-6-methyl-pyridin-4-yl)-phenyl]-8-trifluoromethyl-1,3-dihydro-benzo[b][1,4]diazepin-2-one]
228	Cc1cc(-c2cccc(C3=Nc4ccc(C(F)(F)F)cc4NC(=O)C3)c2)cc(CO)n1 [Example 407, 4-[3-(2-Hydroxymethyl-6-methyl-pyridin-4-yl)-phenyl]-8-trifluoromethyl-1,3-dihydro-benzo[b][1,4]diazepin-2-one]
215	Cc1cc(-c2cccc(C3=Nc4cc(N(C)CC(C)C)c(C(F)(F)F)cc4NC(=O)C3)c2)cc(C)n1 [Example 408, 4-[3-(2,6-Dimethyl-pyridin-4-yl)-phenyl]-7-(isobutyl-methyl-amino)-8-trifluoromethyl-1,3-dihydro-benzo[b][1,4]diazepin-2-one]
256	Cc1cc(-c2cccc(C3=Nc4cc(N(C)C)c(C(F)(F)F)cc4NC(=O)C3)c2)cc(C)n1 [Example 409, 7-Dimethylamino-4-[3-(2,6-dimethyl-pyridin-4-yl)-phenyl]-8-trifluoromethyl-1,3-dihydro-benzo[b][1,4]diazepin-2-one]
233	Cc1cc(-c2cccc(C3=Nc4cc(N5CCCC5)c(C(F)(F)F)cc4NC(=O)C3)c2)cc(C)n1 [Example 411, 4-[3-(2,6-Dimethyl-pyridin-4-yl)-phenyl]-7-pyrrolidin-1-yl-8-trifluoromethyl-1,3-dihydro-benzo[b][1,4]diazepin-2-one]
232	Cc1cc(-c2cccc(C3=Nc4cc(N(C)C(C)C)c(C(F)(F)F)cc4NC(=O)C3)c2)cc(C)n1 [Example 412, 4-[3-(2,6-Dimethyl-pyridin-4-yl)-phenyl]-7-(isopropyl-methyl-amino)-8-trifluoromethyl-1,3-dihydro-benzo[b][1,4]diazepin-2-one]
233	CCCN(C)c1cc2c(cc1C(F)(F)F)NC(=O)CC(c1cccc(-c3cc(C)nc(C)c3)c1)=N2 [Example 413, 4-[3-(2,6-Dimethyl-pyridin-4-yl)-phenyl]-7-(methyl-propyl-amino)-8-trifluoromethyl-1,3-dihydro-benzo[b][1,4]diazepin-2-one]
209	Cc1cc(-c2cccc(C3=Nc4cc(C(F)(F)F)c(C(F)(F)F)cc4NC(=O)C3)c2)ccn1 [Example 414, 4-[3-(2-Methyl-pyridin-4-yl)-phenyl]-7,8-bis-trifluoromethyl-1,3-dihydro-benzo[b][1,4]diazepin-2-one]
220	Cc1cc(-c2cccc(C3=Nc4cc(C(F)(F)F)c(C(F)(F)F)cc4NC(=O)C3)c2)cc(C)n1 [Example 415, 4-[3-(2,6-Dimethyl-pyridin-4-yl)-phenyl]-7,8-bis-trifluoromethyl-1,3-dihydro-benzo[b][1,4]diazepin-2-one]
210	O=C1CC(c2cccc(-c3cccnc3)c2)=Nc2cc(C(F)(F)F)c(C(F)(F)F)cc2N1 [Example 416, 4-(3-Pyridin-3-yl-phenyl)-7,8-bis-trifluoromethyl-1,3-dihydro-benzo[b][1,4]diazepin-2-one]
209	O=C1CC(c2cccc(-c3ccnc(CO)c3)c2)=Nc2cc(C(F)(F)F)c(C(F)(F)F)cc2N1 [Example 417, 4-[3-(2-Hydroxymethyl-pyridin-4-yl)-phenyl]-7,8-bis-trifluoromethyl-1,3-dihydro-benzo[b][1,4]diazepin-2-one]
